Consider one molecule from patent publication US11564913B2, “Compositions and methods for treating cancer” (Children's Hospital Medical Center, priority 2019, dated 2023).

SMILES strings stand for the structures.

Data set [1] in a line: Peripheral blood counts (Hemavet) after 12 doses in xenograft mice. The class given is in vivo. Particulars: end of four-week treatment (12 doses). The procedure: Peripheral blood collected after 12 doses of IODVA1 in tumor-bearing breast cancer xenograft animals were analyzed for blood counts with a Hemavet. No statistically significant changes in blood counts were detected between vehicle control and IODVA1 treated animals (N=4, mean, SEM).
At the end of the four-week treatment when mice were euthanized, peripheral blood was collected via cardiac puncture to check the effect of IODVA1 on white and red blood cells of treated mice for any sign of toxicity.
For xenograft studies, 1×10^6 MDA-MB-231 cells were suspended in PBS and injected into each inguinal mammary fat pad of nulliparous, 10-week old female athymic nude mice. Tumors were measured weekly with digital calipers and volume was calculated as [(π/6))×L×W^2] (Euhus et al., 1986; Tomayko and Reynolds, 1989). Treatment began eight weeks post-injection, when tumors reached 200 mm^3. Mice received intraperitoneal injections of 250 uL of diluent (5% DMSO in PBS) or […] of compound IODVA1 three times weekly for 4 weeks, for an average drug dose of 3.5 mg/kg. At necropsy, the mice were weighed and the tumors were excised, measured, weighed, fixed in 4% paraformaldehyde, and embedded in paraffin. Peripheral blood was collected by cardiac puncture and analyzed with a Hemavet (Drew Scientific, Miami Lakes, Fla., USA) for complete blood counts. […]

A further data set has as its system MDA-MB-231 cells. Description: EGF-induced lamellipodia formation / F-actin staining. The class given is cell-based, human. On the procedure: FIG. 5: Cytoskeletal changes induced by IODVA1 treatment. IODVA1 inhibits lamellipodia and circular dorsal ruffle (CDR) formation in MDA-MB-231 cells and decreases Rac activation. (A) IODVA1 inhibits EGF-induced lamellipodia formation in MDA-MB-231 cells. MDA-MB-231 cells were plated on fibronectin-coated coverslips, serum starved for 4 h, […], fixed and stained with Phalloidin Alexa Fluor 594 (F-Actin, pseudocolored red) and DAPI (nuclei, pseudocolored blue). Representative images show lamellipodia formation and enrichment of actin staining at the leading edge (white closed arrowheads) at 0 and 0.3 μM concentrations and lack of lamellipodia with rounded cell morphology at 1 and 3 μM. Note equally distributed phalloidin staining with presence of stress fibers in the cell body of the 1 and 3 μM treated-cells (white open arrowheads) indicative of stationary cells. Scale bar=10 μm. […] The percentage of cells with CDRs was counted as the number of cells with CDRs normalized to the total number of cells in the field. Around 150 cells were counted per condition per experiment. Cells with multiple CDRs were counted only once. […] Levels of active Rac (RacGTP, % of control), active Cdc42 (Cdc42GTP, % of control) and active RhoA (RhoAGTP, % of control) were quantified using ImageJ and ImageLab and show combined data as mean±s.e.m. from at least 3 independent experiments. […]

As for `OC1(c2ccccn2)N=C(Nc2nc3ccccc3[nH]2)N=C1c1ccccn1` (stereo not drawn) [IODVA1, (Z)-2-((1H-benzo[d]imidazol-2-yl)imino)-4,5-di(pyridin-2-yl)-2,5-dihydro-1H-imidazol-5-ol], the “WBC, neutrophils, lymphocytes, monocytes, RBC, hemoglobin, hematocrit, MCV, MCH, MCHV, RDW, platelets, mean platelet volume versus vehicle” value in data set [1] is “no significant difference”. The “lamellipodia formation and enrichment of cortical filamentous actin” value with MDA-MB-231 cells (0-3 μM for 1 h, then EGF for 30 min) is listed as “inhibited”. The “overall filamentous actin staining” value in the data set on MDA-MB-231 cells (EGF, wash out, then 3 μM within 30 min) is “qualitatively reduced”.
